“Also recorded” adds a separate entry of the source. Non-standard residues stand in square brackets, D forms with d. No end group written: not given here.
Columns and labels:
[1] = tested on: GFP-FoxM1B fusion protein; experiment: Localization of GFP-FoxM1B fusion protein in transfected U2OS cells (fluorescence); type: cell-based, human; settings: for targeting of GFP-FoxM1B protein to the nucleolus: cotransfection of expression vector
Text: FIGS. 7A-H show nuclear localization of GFP-FoxM1B fusion protein following treatment with either pharmacological kinase inhibitors or dominant negative kinases. U20S cells were transiently transfected with CMV GFP-FoxM1B with the indicated pharmacological kinase inhibitors (B-D) or dominant-negative kinase expression vectors (E-H). Cells in panel (A) were untreated.
U2OS cells were transiently transfected in 2 well chamber slides (Nunc) with CMV GFP-FoxM1B expression constructs in the presence or absence of either CMV WT T7-p19^ARF, CMV HA-p19^ARF, or CMV expression constructs containing either N-terminal mutant T7-p19^ARF proteins (Δ1-14, Δ15-25, or Δ26-37) or V5-TAT-p19^ARF proteins (26-44; SEQ ID NO: 11, or 26-55; SEQ ID NO: 12). U2OS cells were transiently transfected with CMV EGFP expression vector containing the TAT-p19^ARF proteins (26-44; SEQ ID NO: 11, or 26-55; SEQ ID NO: 12). Forty-eight hours post transfection, cells were fixed in 4% Para-formaldehyde for 20 minutes at room temperature. GFP fluorescence or immuno-fluorescence with anti-HA antibody following TRITC conjugated secondary antibody was detected using a Zeiss microscope. U2OS cells were treated with 12 μM of the arrrarrKFVRSRRPRTASCALAFVN (SEQ ID NO: 10) peptide for 24 hours and then analyzed for TRITC fluorescence as described above.

FoxM1B protein = biological target: T1, FoxM1B protein (Homo sapiens, UniProt Q08050); experiment: Co-immunoprecipitation of V5-tagged p19ARF sequences with GFP-FoxM1B from transfected U2OS extracts; type: binding; settings: V5 antibody IP, GFP Western blot
T1 construct: expressed in transfected cells; host or cells: U2OS (human osteosarcoma) cells, transient transfection
T1 sequence (Q08050 1-748 isoform Q08050-2): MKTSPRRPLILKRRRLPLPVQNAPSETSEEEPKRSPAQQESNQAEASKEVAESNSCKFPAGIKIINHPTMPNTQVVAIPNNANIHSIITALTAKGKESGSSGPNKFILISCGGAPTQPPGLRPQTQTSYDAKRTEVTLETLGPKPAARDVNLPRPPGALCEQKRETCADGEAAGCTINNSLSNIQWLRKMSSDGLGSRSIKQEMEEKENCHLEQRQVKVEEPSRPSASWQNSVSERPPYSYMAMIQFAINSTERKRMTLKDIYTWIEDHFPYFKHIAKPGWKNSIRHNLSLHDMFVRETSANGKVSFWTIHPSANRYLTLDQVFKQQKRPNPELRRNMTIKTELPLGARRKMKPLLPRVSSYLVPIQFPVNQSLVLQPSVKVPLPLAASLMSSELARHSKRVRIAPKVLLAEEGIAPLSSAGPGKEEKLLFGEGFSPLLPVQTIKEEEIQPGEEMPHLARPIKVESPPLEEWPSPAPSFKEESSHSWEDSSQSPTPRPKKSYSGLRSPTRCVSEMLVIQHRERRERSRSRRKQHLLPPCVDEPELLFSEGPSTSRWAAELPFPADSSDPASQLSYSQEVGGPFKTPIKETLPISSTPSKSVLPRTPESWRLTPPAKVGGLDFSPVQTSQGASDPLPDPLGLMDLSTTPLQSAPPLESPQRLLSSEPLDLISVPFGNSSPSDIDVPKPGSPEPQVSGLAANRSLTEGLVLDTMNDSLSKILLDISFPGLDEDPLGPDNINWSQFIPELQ
Procedure: The p19 protein was immunoprecipitated from transfected protein extracts with V5 epitope antibody followed by Western blot analysis with GFP monoclonal antibody.
To identify p19 protein sequences that are sufficient for association with FoxM1B protein, Co-IP assays were performed with protein extracts prepared from U2OS cells that were transiently transfected with CMV GFP-FoxM1B expression plasmid and the CMV expression vector containing the V5 epitope tagged p19^ARF 26-44 or p19^ARF 26-55 sequences. At the amino terminus of either the p19^ARF sequences 26 to 44 or 26 to 55, we placed the protein transduction/nuclear localization domain ([…]; SEQ ID NO: 13) from the HIV-TAT protein (Becker-Hapak et al., 2001, Methods 24:247-256). Protein extracts were incubated with the V5 epitope tag antibody to IP the p19 protein followed by Western blot analysis with GFP monoclonal antibody to detect the GFP-FoxM1B fusion protein.

[2] = tested on: FoxM1B transcriptional activity; experiment: FoxM1B transcription assay with 6X FoxM1B TATA-luciferase reporter in transfected U2OS cells; type: cell-based, human
Procedure: U20S TetR cells were transiently co-transfected with the reporter 6X-FoxM1B-TATA-Luciferase and CMV-TO-FoxM1B (500 ng) alone or with increasing amounts of either CMV-DN-Cdk1, Cdk1 pharmacological inhibitor Alsterpaullone or CMV-Myt1. Results are expressed as the percent activity with respect to wild-type FoxM1B using four separate transfection experiments were performed in triplicate to calculate ±SD.
U20S TetR cells were transiently co-transfected with the reporter 6X-FoxM1B-TATA-Luciferase and CMV-TO-FoxM1B (500 ng) with CMV-DN-p90Rsk, CMV-DN-Ras or DN-AKT or with 50 μM of either U0126 or Ly294002 alone or together or with 25 μM of Akt inhibitor. Four separate transfection experiments were performed in triplicate to calculate ±SD.
A 6X FoxM1B/FoxA TATA-Luciferase utilized 6 copies of the FoxM1B/FoxA binding site (TTTGTTTGTTTG; SEQ ID NO: 6) from the cdx-2 promoter region driving expression of the CMV-TATA box luciferase reporter gene as described previously (Rausa et al., 2003, Mol. Cell. Biol. 23:437-449; Samadani et al., 1996, Mol. Cell. Biol. 16:6273-6284; Ye et al., 1997, Mol. Cell Biol. 17:1626-1641).
Inhibiting Cdk1 activity with either dominant negative (DN) Cdk1 or a pharmacologically active concentration of Alsterpaullone (1 μM) caused an 80% to 90% reduction in FoxM1B transcriptional activity (FIG. 6C). […] Consistent with these findings, stimulation of Cdk1 activity by co-transfection of either CMV Cdc25B or Cdc25C phosphatases enhanced FoxM1B transcriptional activity by 3.4-fold and 1.7-fold, respectfully (FIGS. 6B and 6D). […]
Human osteosarcoma U2OS cells were maintained in DMEM supplemented with 10% fetal calf serum, 1× Pen/Strep and 1× L-Glutamine (Gibco). […] Luciferase activity was determined as percent of wild type FoxM1B activity following normalization to Renilla activity. Experiments were performed at least four times in triplicate and mean±SD determined. […]

parental U2OS cells = experiment: Soft agar colony formation, parental (wild type) U2OS cells; type: cell-based, human; settings: 12 μM peptide, two weeks
Procedure: The T-REx™-U2OS cells were purchased from Invitrogen Life Technologies (Catalog No. R712-07). The T-REx™-U2OS cells express the Tet repressor from pCEP4/tetR that was episomally maintained in tissue culture medium containing 10% fetal calf serum and drug selection with 50 μg/ml of Hygromycin B. Tetracycline regulation in the T-REx System was based on the binding of tetracycline to the TET repressor and de-repressing of the CMV-TETO promoter controlling expression of the gene of interest (Yao et al., 1998, Hum Gene Ther 9:1939-1950). The pCDNA4-TO GFP-FoxM1B expression plasmid provided in the T-REx™ system was generated as described previously (Major et al., 2004, Mol. Cell. Biol. 24:2649-2661) and transfected T-REx™-U2OS cells with linearized pCDNA4-TO GFP-Foxm1b expression plasmid to select clonal Doxycycline inducible GFP-Foxm1b U2OS cell lines. CMV-TETO GFP-FoxM1B U2OS clones were isolated by selection for three weeks with tissue culture medium containing 50 μg/ml of Hygromycin B and 250 μg/ml of Zeocin. […] Wild type U2OS cells or CMV-TETO GFP-Foxm1b U2OS clone C3 cells were grown in medium with or without 1 μg/ml of Doxycycline for 2 days prior to either adding the (D-Arg)9-p19^ARF 26-44 peptide or left untreated. […] U2OS cell colonies that were larger than 1 mm in size were scored after two weeks of growth on the soft agar.

U2OS clone C3 cells = experiment: Soft agar colony formation, Doxycycline induced CMV-TETO GFP-FoxM1B U2OS clone C3 cells; type: cell-based, human; settings: 12 μM peptide, 1 μg/ml Doxycycline, two weeks
Procedure: The T-REx™-U2OS cells were purchased from Invitrogen Life Technologies (Catalog No. R712-07). The T-REx™-U2OS cells express the Tet repressor from pCEP4/tetR that was episomally maintained in tissue culture medium containing 10% fetal calf serum and drug selection with 50 μg/ml of Hygromycin B. Tetracycline regulation in the T-REx System was based on the binding of tetracycline to the TET repressor and de-repressing of the CMV-TETO promoter controlling expression of the gene of interest (Yao et al., 1998, Hum Gene Ther 9:1939-1950). […] U2OS cell colonies that were larger than 1 mm in size were scored after two weeks of growth on the soft agar.
In addition, the tetracycline (TET) regulated T-REx™ System described above was used to conditionally express the GFP-FoxM1B protein in U2OS cells to determine whether conditional overexpression of FoxM1B protein could enhance anchorage-independent growth of U2OS cells. […] The U2OS clone C3 cell line was selected to examine whether doxycycline induced FoxM1B-GFP expression enhanced anchorage-independent growth as assessed by propagation for two weeks on soft agar (Conzen et al., 2000, Mol Cell Biol 20:6008-6018).

U2OS cells = experiment: Cellular uptake and localization of TRITC-tagged peptide in U2OS cells; type: cell-based, human; settings: 12 μM, three days
[3] = cotransfection of CMV expression vector, U2OS cells

Compound: O=C1Cc2c([nH]c3ccc([N+](=O)[O-])cc23)-c2ccccc2N1 [Alsterpaullone, reference compound]
- nuclear localization of transfected CMV GFP-FoxM1B protein ([1]; Alsterpaullone 1 μM): Neither DN-Cdk1 nor Alsterpaullone (1 μM) altered nuclear localization

Compound: KFVRSRRPRTASCALAFVN (Mus Musculus) [V5-TAT-p19^ARF 26-44]
- association with FoxM1B protein (Co-IP) (FoxM1B protein): sufficient to associate with the FoxM1B protein
- FoxM1B transcriptional activity [2, 3]: able to significantly decrease FoxM1B transcriptional activity
- targeting of GFP-FoxM1B protein to the nucleolus [1]: targeted to the nucleolus

Compound: rrrrrrrrrKFVRSRRPRTASCALAFVN ([dR][dR][dR][dR][dR][dR][dR][dR][dR]KFVRSRRPRTASCALAFVN; listed as Mus musculus) [(D-Arg)9-p19^ARF 26-44 peptide, p19ARF 26-44 peptide containing nine D-Arg residues at the N-terminus]
- colony formation on soft agar (parental U2OS cells): significantly diminished the ability of the parental U2OS cells to form colonies on soft agar; also recorded: significantly inhibited colony formation of U2OS cells on soft agar
- FoxM1B transcriptional activity ([2]; 12 μM peptide, 24 hours, transfected U2OS cells): significant reduction in FoxM1B transcriptional activity; also recorded: effective inhibitor of FoxM1B transcriptional activity
- FoxM1B induced colony formation on soft agar (U2OS clone C3 cells): significantly diminished the ability of induced GFP-FoxM1B to stimulate colony formation
- transduction into cells and localization of peptide fluorescence (U2OS cells): efficiently transduced into all of the cells and that its fluorescence localized to the nucleolus; also recorded: transduced into the cell and was localized to the nucleolus

Compound: KFVRSRRPRTASCALAFVNMLLRLERILRR (listed as Mus musculus) [V5-TAT-p19^ARF 26-55]
- FoxM1B transcriptional activity [2, 3]: able to significantly decrease FoxM1B transcriptional activity
- targeting of GFP-FoxM1B protein to the nucleolus [1]: targeted to the nucleolus

— patent US8431522B2, “Methods of inhibiting tumor cell proliferation” (The Board of Trustees of the University of Illinois, priority 2003, dated 2013)
